In ChEMBL document CHEMBL4184111, “Small molecule immuno-oncology therapeutic agents” (Bioorg Med Chem Lett, 2018):
pIC50, pKi: −log10 of the molar value.

Assays:
[1] = biological target: eIF-2-alpha kinase GCN2 (Homo sapiens, UniProt Q9P2K8); test: Inhibition of GCN2 (unknown origin) using GFP--fused eIF2alpha as substrate preincubated for 20 mins followed by substrate and ATP addition measured after 90 mins by TR-FRET assay
[2] = biological target: Mitogen-activated protein kinase kinase kinase kinase 1 (Homo sapiens, UniProt Q92918); test: Inhibition of N-terminal GST-tagged human HPK1 (1 to 346 residues) after 30 mins in presence of ATP by indirect ELISA
Chain of Mitogen-activated protein kinase kinase kinase kinase 1 (Q92918 whole entry, the tested form may be a part): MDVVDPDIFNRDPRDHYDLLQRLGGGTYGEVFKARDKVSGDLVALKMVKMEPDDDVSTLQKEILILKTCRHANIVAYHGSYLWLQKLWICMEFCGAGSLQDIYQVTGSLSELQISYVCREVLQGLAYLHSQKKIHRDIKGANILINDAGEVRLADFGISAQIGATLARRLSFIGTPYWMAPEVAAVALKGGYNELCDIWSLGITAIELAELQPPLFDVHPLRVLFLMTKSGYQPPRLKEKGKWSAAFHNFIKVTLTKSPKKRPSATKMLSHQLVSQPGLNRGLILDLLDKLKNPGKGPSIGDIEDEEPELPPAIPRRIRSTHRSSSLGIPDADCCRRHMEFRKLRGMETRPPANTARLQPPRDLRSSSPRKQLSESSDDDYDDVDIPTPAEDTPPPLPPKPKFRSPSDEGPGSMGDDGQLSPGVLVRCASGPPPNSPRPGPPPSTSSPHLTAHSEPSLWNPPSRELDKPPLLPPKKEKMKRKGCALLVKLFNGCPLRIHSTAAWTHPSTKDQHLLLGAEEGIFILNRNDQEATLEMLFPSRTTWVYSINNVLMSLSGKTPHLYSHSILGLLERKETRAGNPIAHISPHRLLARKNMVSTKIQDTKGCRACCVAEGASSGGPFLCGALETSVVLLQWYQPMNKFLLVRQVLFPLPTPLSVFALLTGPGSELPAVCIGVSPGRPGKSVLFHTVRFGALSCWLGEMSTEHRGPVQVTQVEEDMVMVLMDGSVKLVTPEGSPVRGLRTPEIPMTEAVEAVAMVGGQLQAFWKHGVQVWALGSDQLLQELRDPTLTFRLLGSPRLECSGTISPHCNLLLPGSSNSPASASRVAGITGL

[3] = Inhibition of arginase (unknown origin); design: species or system Homo sapiens
[4] = biological target: Programmed cell death protein 1 (Homo sapiens, UniProt Q15116); test: Inhibition of His-tagged PD-L1 binding to PD-1-Ig (unknown origin) preincubated with PD-L1 for 15 mins followed by PD-1-Ig addition measured after 15 mins by HTRF binding assay
Chain of Programmed cell death protein 1 (Q15116 whole entry): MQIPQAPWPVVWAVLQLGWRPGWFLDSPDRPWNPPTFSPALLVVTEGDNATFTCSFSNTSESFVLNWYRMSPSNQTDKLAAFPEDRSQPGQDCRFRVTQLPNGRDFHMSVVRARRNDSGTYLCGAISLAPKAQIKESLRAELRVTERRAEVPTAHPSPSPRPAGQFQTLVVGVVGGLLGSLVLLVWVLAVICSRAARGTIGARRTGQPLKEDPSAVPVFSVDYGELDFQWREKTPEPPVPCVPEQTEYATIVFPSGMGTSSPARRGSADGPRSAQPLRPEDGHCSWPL

[5] = Half life in rat; assay type: ADME, organism-based; details: in vivo
[6] = biological target: T1, Arginase-2, mitochondrial (Homo sapiens, UniProt P78540); test: Inhibition of arginase 2 (unknown origin)
T1 sequence (P78540 whole entry): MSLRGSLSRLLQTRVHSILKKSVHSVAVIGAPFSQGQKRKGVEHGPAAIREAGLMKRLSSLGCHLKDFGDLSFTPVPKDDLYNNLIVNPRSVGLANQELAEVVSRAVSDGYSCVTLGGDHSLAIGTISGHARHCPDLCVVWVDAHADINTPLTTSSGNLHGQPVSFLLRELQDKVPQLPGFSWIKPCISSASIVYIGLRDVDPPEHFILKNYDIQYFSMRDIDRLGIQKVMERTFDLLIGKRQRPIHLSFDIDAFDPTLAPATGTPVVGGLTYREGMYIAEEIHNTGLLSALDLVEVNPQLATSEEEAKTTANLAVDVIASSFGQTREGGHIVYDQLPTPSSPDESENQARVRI

[7] = biological target: Tyrosine-protein kinase SYK (Homo sapiens, UniProt P43405); test: Inhibition of N-terminal GST-tagged human SYK expressed in baculovirus infected Sf9 insect cells using Biotin-Aha-Aha-KEDPDYEWPSAKK as substrate after 90 mins by flash plate assay

Chain of eIF-2-alpha kinase GCN2 (Q9P2K8 whole entry, the tested form may be a part): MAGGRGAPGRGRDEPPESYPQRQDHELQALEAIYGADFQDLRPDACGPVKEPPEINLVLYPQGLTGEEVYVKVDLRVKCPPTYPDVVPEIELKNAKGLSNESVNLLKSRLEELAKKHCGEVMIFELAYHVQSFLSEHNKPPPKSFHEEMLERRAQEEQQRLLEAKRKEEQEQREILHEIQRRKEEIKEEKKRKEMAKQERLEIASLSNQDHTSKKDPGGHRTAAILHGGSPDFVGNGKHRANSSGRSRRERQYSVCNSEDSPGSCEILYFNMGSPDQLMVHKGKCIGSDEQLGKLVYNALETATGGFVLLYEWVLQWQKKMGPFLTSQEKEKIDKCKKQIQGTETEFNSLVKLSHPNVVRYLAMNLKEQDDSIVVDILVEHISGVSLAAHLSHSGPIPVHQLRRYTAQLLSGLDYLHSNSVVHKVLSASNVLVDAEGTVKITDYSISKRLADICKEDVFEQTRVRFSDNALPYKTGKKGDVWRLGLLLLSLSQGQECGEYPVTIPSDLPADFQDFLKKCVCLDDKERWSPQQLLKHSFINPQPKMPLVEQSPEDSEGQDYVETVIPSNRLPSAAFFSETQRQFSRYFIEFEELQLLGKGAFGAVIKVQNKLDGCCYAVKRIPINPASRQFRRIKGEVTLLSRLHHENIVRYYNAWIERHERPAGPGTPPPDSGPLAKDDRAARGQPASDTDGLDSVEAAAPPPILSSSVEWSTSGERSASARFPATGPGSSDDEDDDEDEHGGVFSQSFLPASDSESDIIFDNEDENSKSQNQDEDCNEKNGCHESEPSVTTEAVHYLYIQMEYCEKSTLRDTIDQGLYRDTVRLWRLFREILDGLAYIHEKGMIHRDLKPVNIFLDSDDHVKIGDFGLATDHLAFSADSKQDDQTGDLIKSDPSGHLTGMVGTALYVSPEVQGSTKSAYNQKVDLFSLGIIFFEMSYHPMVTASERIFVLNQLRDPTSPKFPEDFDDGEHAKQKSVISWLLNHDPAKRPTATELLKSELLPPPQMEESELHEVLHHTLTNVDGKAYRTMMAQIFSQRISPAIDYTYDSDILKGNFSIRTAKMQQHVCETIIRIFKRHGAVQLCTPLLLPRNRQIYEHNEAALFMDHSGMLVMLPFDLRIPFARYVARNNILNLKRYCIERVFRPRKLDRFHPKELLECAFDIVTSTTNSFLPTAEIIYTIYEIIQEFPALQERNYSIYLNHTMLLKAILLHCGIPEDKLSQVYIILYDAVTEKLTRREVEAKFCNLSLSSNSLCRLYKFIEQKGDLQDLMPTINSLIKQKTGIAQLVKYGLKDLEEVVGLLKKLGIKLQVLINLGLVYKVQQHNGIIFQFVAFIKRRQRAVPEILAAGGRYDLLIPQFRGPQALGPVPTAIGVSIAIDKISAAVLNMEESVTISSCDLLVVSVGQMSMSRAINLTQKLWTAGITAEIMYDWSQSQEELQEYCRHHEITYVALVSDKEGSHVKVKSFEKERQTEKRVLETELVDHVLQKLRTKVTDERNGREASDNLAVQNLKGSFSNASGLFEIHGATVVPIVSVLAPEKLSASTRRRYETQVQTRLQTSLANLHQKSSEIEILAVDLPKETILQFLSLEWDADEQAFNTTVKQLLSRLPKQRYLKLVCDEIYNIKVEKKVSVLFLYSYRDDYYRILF

For `O[C@H]1CC[C@H](n2cc(Nc3ncc4nnn(-c5ccc(Cl)c(F)c5)c4n3)cn2)CC1`, the pIC50 [1] was over 6.52.

In the case of `CN1CCN(c2ccc3[nH]c(-c4c(N)c5ccsc5[nH]c4=O)nc3c2)CC1`, the pIC50 [2] was over 7.30.

`C[C@H](N)C(=O)N1C[C@H](CCCB(O)O)[C@](N)(C(=O)O)C1` gave a pIC50 [3] of 7.01.

Molecule `C[C@H](O)[C@H](NC(=O)N[C@@H](CC(N)=O)c1nnc([C@@H](N)CO)s1)C(=O)O` has a pIC50 [4] of over 7.30.

For `N=C(NO)NCC[C@H](N)C(=O)O` [NOR-NOHA], the half-life [5] was 15 to 30 min and the pKi [6] was 7.29.

Work on `CC(C)C1(O)C(=O)Nc2cc(Nc3nc4c(-c5cnn(C)c5)nccn4n3)ccc21` (stereo not given) yielded a pIC50 [1] of 5.52 to 6.52 and a pIC50 [7] of 6.52 to 7.00.

Work on `COc1cc(OCc2cccc(-c3ccccc3)c2C)cc(OC)c1CNCC1CC(=O)N1` (stereo not given) yielded a pIC50 [4] of over 7.30.

`CN1CCN(c2ccc3nc(-c4c(N)c5sccc5[nH]c4=O)[nH]c3c2)CC1` showed a pIC50 [2] of over 7.30.
